# Test results from ChEMBL document CHEMBL6078623, “Structural insights into small-molecule KRAS inhibitors for targeting KRAS mutant cancers” (Eur J Med Chem, 2024).
# Legend:
# [1] = test system: MIA PaCa-2; experiment: Antiproliferative activity against human MIA PaCa-2 cells assessed as reduction in cell viability; assay type: functional, cell-based
# [2] = molecular target: GTPase KRas (Homo sapiens, UniProt P01116, G12C); experiment: Inhibition of KRAS G12C mutant in human NCI-H358 cells incubated for 24 hrs by Western blot analysis; assay type: cell-based
# Sequence of GTPase KRas (Homo sapiens, UniProt P01116, G12C) (P01116 whole entry G12C): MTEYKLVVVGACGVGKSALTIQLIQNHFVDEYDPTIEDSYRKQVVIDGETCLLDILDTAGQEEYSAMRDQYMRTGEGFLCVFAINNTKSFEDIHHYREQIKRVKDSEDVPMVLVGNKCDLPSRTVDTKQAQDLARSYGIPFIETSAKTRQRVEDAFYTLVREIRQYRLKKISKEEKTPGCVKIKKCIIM
# [3] = test system: NCI-H358; experiment: Antiproliferative activity against human NCI-H358 cells assessed as reduction in cell viability; assay type: functional, cell-based
# [4] = test system: DLD-1; experiment: Antiproliferative activity against human DLD-1 cells assessed as inhibition of cell growth incubated for 72 hrs by MTS assay; assay type: functional, cell-based; settings: DLD-1, 72 h
# [5] = molecular target: GTPase KRas (Homo sapiens, UniProt P01116, G12D); experiment: Binding affinity to KRAS G12D mutant (unknown origin) assessed as dissociation constant by SPR analysis
# Sequence of GTPase KRas (Homo sapiens, UniProt P01116, G12D) (P01116 whole entry G12D): as the sequence (P01116 whole entry G12C) above, with C12D counted along it
# [6] = test system: HT-1080; experiment: Cytotoxicity against human HT-1080 cells assessed as reduction in cell viability incubated for 48 hrs by MTT assay; assay type: functional, cell-based; settings: HT-1080, 48 h
smiles,measurement,setting,value
C=CC(=O)N1CCN(c2nc(=O)n(-c3c(C)ccnc3C(C)C)c3nc(-c4c(O)cccc4F)c(F)cc23)[C@@H](C)C1 [SOTORASIB],IC50,[1],100 nM
C=CC(=O)N1CCN2C(=O)Cc3cc(F)c(-c4ccc(F)c5sc(N)c(C#N)c45)c(Cl)c3OCC2C1 (stereo not drawn),IC50,[2],3.35 nM
C=CC(=O)N1CC2(CC(n3nc(-c4ccc5c(cnn5C)c4)c(-c4c(Cl)c(C)cc5[nH]ncc45)c3C)C2)C1 [OPNURASIB],IC50,[3],18 nM
same,IC50,[2],10 nM
NC1(C(=O)NCCCn2cc(-c3ccc(OC(F)(F)F)cc3)c3cc(CN4CCN(Cc5c(Cl)cccc5Cl)CC4)ccc32)CCNCC1,IC50,[2],1000 nM
COc1nc(-c2cccc3c2OCCO3)ccc1Nc1ccc(CN(C)C)cc1,IC50,[4],8 µM
same,Kd,[5],51 nM
same,IC50,[6],10 µM
